Patent publication US5652222A, “Selective inhibition of leukemic cell proliferation by bcr-abl antisense oligonucleotides” (Temple University-of The Commonwealth System of Higher …, priority 1993, dated 1997)

Legend:
[1] = tested on: bcr-abl protein; details: cited from earlier work
[2] = tested on: K562; details: Caracciolo et al., Science 245; cited from earlier work
[3] = tested on: cell line ALL-1 (b1a2 junction); test: Leukemic cell number of Ph1-positive ALL cell line expressing b1a2 junction; assay type: cell-based, human; details: 50 μg at time zero, 25 μg/ml at 24 and 48 h; vs control and mismatch-treated cultures (FIG. 6)
[4] = assay type: in vivo, SCID mice; details: mice treated with bcr-abl antisense
Experimental: Severe combined immunodeficient (SCID) mice injected with leukemia cells developed a disease process closely resembling that in humans. […] The cell-associated accumulation of antisense oligomer in various organs reached 4-60 μM, which is more than adequate to inhibit growth of leukemic cells. (See FIG. 7).

[5] = tested on: BV173 cells; test: Survival of leukemic SCID mice; assay type: in vivo, SCID mice (human leukemic cells); details: treatment starting from days +7 or +21 (FIG. 12)
Excerpt: To determine the lethal dose of BV173 cells in the SCID mice, we injected from 10^3 to 10^7 cells into the tail vein and monitored survival at various times postinjection. Mice injected with 10^7, 10^6, 10^5, or 10^4 BV173 cells died 8-10, 9-12, 13-15, or 14-22 weeks later, respectively, due to leukemia cell growth as confirmed on necroscopy. Spleen weight was about 40 times higher than that in noninjected SCID mice while liver and kidneys had numerous metastases and were enlarged 10-fold as compared to noninjected mice. Mice injected with 10^3 BV173 cells were still alive 35 weeks post implantation, and leukemia was never detected. From this study, 10^6 cells was taken as a lethal dose.
(§1) To determine whether synthetic phosphorothioate oligodeoxynucleotides targeted against the bcr-abl junction of […] cells would modify the disease process in SCID mice. SCID mice were injected with 10^6 BV173 cells. The mice then received 1 mg of sense (ATCAATAAGG AAGCCCTTCAGCG, SEQ ID NO:34) or antisense ([…] ATTGAT, SEQ ID NO:29) b2/a2 bcr-abl phosphorothioate oligodeoxynucleotides (pyrogen leven <1 Eu/mg; 0.2 ml in Iscove modified Dulbecco medium in 5-10 seconds) intravenously for each of 9 consecutive days, beginning either 7 or 21 days after introducing 10^6 BV173 cells. Control mice received the diluent (iscove's modified Dulbecco medium) only. These time points approximate distinct disease stages in humans.

[6] = tested on: BV173 cells (cALL antigen (CALLA)-positive cells); test: Immunofluorescence / flow cytometry of CALLA-positive cells in tissues of leukemic SCID mice; assay type: in vivo, SCID mice (human leukemic cells)
Experimental: A first assay comprised an immunofluorescence analysis of cALL antigen (CALLA)-positive cells. All BV173 cells but not normal murine hematopoietic cells express this antigen (assay sensitivity=10^-2). Single cell suspensions were prepared for flow cytometry analysis from peripheral blood, spleen and bone marrow cells of the leukemic SCID mice by centrifugation on a lymphocyte-M gradient (Cedarlane Labs, Ltd., Ontario, Canada). Cells (1×10^5) were stained with the FITC-conjugated mouse anti-CALLA monoclonal antibody (Becton-Dickinson Immunocytometry Systems, San Jose, Calif.) to human CD10 antigen. After staining, cells were washed and analyzed by flow cytometry using the Epics Profile Analyzer (Coulter Electronic).
as §1

[7] = tested on: BV173 cells; test: Macroscopic examination / disease state of leukemic SCID mice; assay type: in vivo, SCID mice (human leukemic cells)
Experimental: Injection of the mice with BV173 cells induces a disease closely resembling that in human leukemia patients.
as §1

[8] = tested on: BV173 cells (b2/a2); test: Proliferation of BV173 cells expressing b2a2 junction; assay type: cell-based, human
Experimental: Amplification of the bcr-abl junction with a 5' primer corresponding to bcr exon 2, and a 3' primer corresponding to abl exon 2, followed by hybridization to an 18-mer specific for the b2/a2 or the b3/a2 junction identified the b2/a2 breakpoint in these cells (data not shown).
The sensitivity of the BV173 cells to b2/a2 antisense phosphorothioate oligodeoxynucleotides was assessed. Phosphorothioate oligodeoxynucleotides were prepared on either an Applied Biosystems Model 380B or 390Z Automated Synthesis instrument using conventional phosphoramidite monomers and manufacturer-recommended procedures, which included substitution of tetraethylthiuran (or an equivalent sulfur-donor reagent) for iodine-water-pyridine, […] reversed-phase preparative chromatography, detritylation, and obtaining the final product in the form of its sodium salt, all according to previously published methodology: Zon and Stec, in Oligonucleotides and Analogues A Practical Approach, F. Eckstein, Ed. (Oxford Univerisity Press, Oxford 1991), pp. 87-108; Zon and Geiser, Anti-Cancer Drug Design 6, 539 (1991); Vu and Hirschenbein, Tetrahedron Lett. 32, 3005-3008 (1991).
BV173 cells were cultured in the presence of phosphorothioate b2/a2 antisense 26-mer CGCTGAAGGG CTTCTTCCT ATTGAT (SEQ ID NO:29), the phosphorothioate sense sequence ATCAATAAGGAAGCCCTTCAGCG (SEQUENCE ID NO:34), or the b3/a2 (SEQ ID NO:31) or b1/a2 (SEQ ID N0:33) phosphorothioate antisense 26-mer. […] The sense oligomer SEQ ID NO:34 gave no inhibition (FIG. 7, -.largecircle.-) in comparison to untreated control cells (FIG. 7, -.quadrature.-).

[9] = tested on: bcr-abl (b2/a2) transcripts; test: RT-PCR of bcr-abl transcripts in tissues of leukemic SCID mice; assay type: in vivo, SCID mice (human leukemic cells)
Experimental: According to a third assay, the extent of leukemic disease was assessed by chain RT-PCR to monitor the expression of b2/a2 transcripts (assay sensitivity=[…]) in total RNA isolated from bone marrow cells, splenocytes, peripheral blood leukocytes, liver, lung and brain tissues. Depending on the number of BV173 cells injected, various numbers of leukemic cells were detected by clonogenic assay and RT-PCR in murine tissues, 3 and 6 weeks after injection. A few days before the expected death of leukemic SCID mice, approximately 80, 65, and 10% cALLA-positive cells were detected in bone marrow cells, splenocytes and peripheral blood leukocytes, respectively.
as §1
At 7 (+7) and 21 (+21) days after injecting SCID mice with 10^6 BV173 cells, single cell suspensions were prepared from various tissues. After lysing red cells with 0.83% NH4 Cl buffered with 0.17 mM Tris-HCl, pH 7.4, total RNA was extracted as described (Chomczynski and Sacchi, Anal. Biochem. 162, 156 (1987)) and the suspension was divided into two equal aliquots. Bcr-abl and β-actin transcripts were reverse-transcribed and amplified with specific primers and Taq polymerase as described by Szczylik et al., Science 253, 562 (1991). Amplification products were separated on a 2% agarose gel, transferred to a nitrocellulose filter and hybridized with a synthetic 40-base c-abl fragment or 20-base β-actinfragment end-labeled with [γ^32 -P]-ATP and polynucleotide kinase. The c-abl probe recognizes an amplified 257-bp sequence containing the bcr-abl junction: the β-actin probe recognizes a 209-bp fragment, contained within the 5' and 3' β-actin primers (Tokunaga et al., Nucleic Acids Res. 14, 2829 (1986)).

[10] = tested on: BV173 cells; test: Clonogenic assay of tissues of leukemic SCID mice; assay type: in vivo, SCID mice (human leukemic cells)
Experimental: A second assay for leukemic disease comprised a clonogenic assay in semisolid medium. […] By contrast, BV173 cells formed numerous, rapidly growing colonies. To rule out the possibility that the presence of BV173 cells permitted the growth of murine progenitors, mixing experiments were carried out.
as §1
10^5 cells were plated in duplicate in 35×10 mm tissue culture dishes (Nunc, Inc., Naperville, Ill.) in HCC-4230 medium (Terry Fox Lab., Vancouver, Canada) supplemented with 2.5 mM L-glutamine, and allowed to grow for 12 days. Plates were scanned with an inverted microscope and total colony number was determined. The results are shown in FIG. 9 (C, untreated mouse; S, sense-treated mouse, AS, antisense-treated mouse).

[11] = from day +21, 26 days after treatment (8 weeks)

SEQ ID NO:27: antisense oligodeoxynucleotide TACTGGCCGC TGAAGGGC complementary to 18 nucleotides of the second exon of c-abl (antisense TACTGGCCGCTGAAGGGC; DNA, backbone and methylation of C not given here)
reducing bcr-abl protein levels ([1]; Caracciolo et al., Science 245): effective in reducing bcr-abl protein levels | specificity for the bcr-abl junction ([1]; hybridization to message from untranslocated abl): not specific for the bcr-abl junction, as it also hybridizes to the message from untranslocated abl | inhibition of the Ph1-positive cell line K562 [2]: inhibition of the Ph^1 -positive cell line K562

SEQ ID NO:9: 18-mer antisense oligonucleotide GAAGGGCTTC TGCGTCTC completely complementary to the b1a2 junction (antisense GAAGGGCTTCTGCGTCTC; chemistry not given here)
leukemic cell number [3]: significant reduction in leukemic cell number over the control and mismatch-treated cultures

SEQ ID NO:29: b2a2 antisense phosphorothioate 26-mer CGCTGAAGGGCTTCTTCCTT ATTGAT (antisense CGCTGAAGGGCTTCTTCCTTATTGAT; all phosphorothioate, sugars by position and methylation of C not given here)
cell-associated accumulation of antisense oligomer in various organs [4]: 4 to 60 µM | mortality / survival outcome [5]: prolonged survival | survival after i.v. injection of 10^6 BV173 cells [5]: ≥ 16 weeks | CALLA+ cells in tissues ([6]; from day +7, 26 days after last treatment (6 weeks)): No CALLA+ cells were detected | CALLA+ cells in tissues ([6]; from day +21, 12 days after last treatment (6 weeks)): not detected after antisense treatment | CALLA+ cells in tissues [6, 11]: not detected in the antisense-treated mouse | apparently disease-free, days after injection of leukemic cells ([7]; 1 mg/mouse x9 i.v. from day 7): ≥ 42 days | apparently disease-free, days after injection of leukemic cells ([7]; 1 mg/mouse x9 i.v. from day 21): ≥ 56 days | protection from leukemic disease ([7]; SCID mice injected with BV173 cells): protected from the disease | macroscopic examination: metastases / leukemic nodules in liver, kidneys, splenomegaly ([7]; from day +21, 26 days after treatment (8 weeks), FIG. 11): not in antisense-treated animal | inhibition of proliferation ([8]; 3.0 μM, 9 days in culture): 100% | inhibition of proliferation of BV173 cells ([8]; in comparison to untreated control cells (FIG. 7)): Only the b2/a2 antisense oligodeoxynucleotide inhibited the proliferation of BV173 cells | bcr-abl transcripts in tissues ([9]; from day +7, 12 days after last treatment (4 weeks), blood, spleen, bone marrow, liver, lung, brain): not in the antisense-treated mouse | bcr-abl (b2/a2) transcripts in tissues ([9]; from day +7, 26 days after last treatment (6 weeks), blood leukocytes, spleen, bone marrow, liver, lung, brain): no bcr-abl (b2/a2) transcripts in the tissues | RT-PCR product (bcr-abl), spleen [9, 11]: less abundant than in the sense-treated mouse | bcr-abl transcripts in tissues [9, 11]: undetectable after antisense-treatment in each tissue analyzed except spleen | leukemic colonies, peripheral blood leukocytes ([10]; 1 mg/day i.v. x9 from day +7, killed 26 days after last treatment (6 weeks)): no detectable colonies | leukemic colonies, peripheral blood mononuclear cells ([10]; 1 mg/mouse/day x9 from day +21, 12 days after last treatment (6 weeks), untreated 11.0±8.5): 0 colonies | leukemic colonies, spleen ([10]; 1 mg/mouse/day x9 from day +21, 12 days after last treatment (6 weeks), untreated 80.5±12.0): 0 colonies | leukemic colonies, bone marrow ([10]; 1 mg/mouse/day x9 from day +21, 26 days after treatment (8 weeks)): not after antisense treatment
